Where no end group is shown, it is not given here. [ ]: non-standard residue; d: D form. pY = N[C@@H](Cc1ccc(OP(=O)(O)O)cc1)C(=O)O
Columns and labels:
[1] = biological target: T1, EGFR (Homo sapiens, UniProt P00533); assay: EGFR binding assay, bound EGFR detected by its tyrosine kinase activity towards pEY; conditions: Grb2 plasmid, +EGFR, in presence of the peptide
T1 construct: autophosphorylated tyrosines (self-phosphorylated with ATP before use); purchased Sigma Chemical Co, MO
Method: Proteins were produced in an in vitro transcription and translation reaction using 40–100 ng of plasmid DNA. […] The unbound components of the reaction containing endogenous kinases were removed by three washes with TT-buffer (25 mM Tris-HCl buffer pH 7.4 and 0.004% Triton), two five minutes washings with high-salt wash buffer (25 mM Tris-HCl buffer pH 7.4, 0.004% Triton, 1M NaCl and 5 mM DTT) and 3 more washes with TT-buffer. […] The unbound EGFR was washed by 4 times washing with TT-buffer (25 mM Tris-HCl buffer pH 7.4 and 0.004% Triton). The amount of EGFR bound to the reticulocyte lysate expressed protein was determined by detecting the kinase activity of EGFR. A tyrosine kinase substrate, 5 nM pEY (poly Glu-Tyr, Sigma, MO) was added in a 50 μl reaction containing 5 mM MgCl2, 5 mM MnCl2, 100 μM ATP, 25 mM Tris-HCl buffer pH 7.4, 0.05 mM Na3VO4, 0.004% TritonX-100, 2 mM DTT and EDTA-free protease inhibitor (Roche Molecular Biochemicals). This mixture was incubated with shaking at room temperature for 1 or 12 hours to allow phosphorylation of the pEY substrate by the EGFR. […]
The unbound reagents were removed by one time washing with TT-buffer (25 mM Tris-HCl buffer pH 7.4 and 0.004% Triton), and the TAG label was detected in presence of 150 μl IPR assay buffer (0.4 mM Gly-Gly buffer, pH 7.8, 1 mM EDTA, 0.1 M TPA). The ECL signals were measured using an imaging plate reader.

[2] = biological target: T2, Kit (Mus musculus, UniProt P05532); assay: Kinase inhibitor profiling, pEY phosphorylation; type: biochemical
T2 construct: specificity data for proteins generated from a library of eighteen full-length clones; biotin on random lysines (biotin-Lys-tRNA); host or cells: rabbit reticulocyte lysate, coupled transcription/translation (TnT, Promega)
Method: (§1) Proteins were produced in an in vitro transcription and translation reaction. […] The unbound components of the reaction containing endogenous kinases were removed by three washes with TT-buffer (25 mM Tris-HCl buffer pH 7.4 and 0.004% Triton), two five minutes washings with high-salt wash buffer (25 mM Tris-HCl buffer pH 7.4, 0.004% Triton, 1M NaCl and 5 mM DTT) and 3 more washes with TT-buffer. To these immobilized and purified proteins a tyrosine kinase substrate, 5 nM pEY (poly Glu-Tyr, Sigma, MO), was added in a 50 μl reaction solution containing 5 mM MgCl2, 5 mM MnCl2, 100 μM ATP, 25 mM Tris-HCl buffer pH 7.4, 0.05 mM Na3VO4, 0.004% TritonX-100, 2 mM DTT and EDTA-free protease inhibitor (Roche Molecular Biochemicals). This mixture was incubated with shaking at room temperature overnight to allow phosphorylation of the pEY substrate by the immobilized kinases. Following this incubation, 45 μl of this mixture was transferred to a streptavidin or avidin-coated NPT IPR plate coated with biotinylated anti-phosphotyrosine antibody (PY20, Zymed labs, CA) followed by incubation for 30 minutes at room temperature to allow the binding of the phosphorylated pEY substrate to the PY20 coated NPT plate. Following this binding step, 50 ng Sulfo-TAG labeled anti-phosphotyrosine in buffer containing 25 mM Tris-HCl buffer pH 7.4, 5 mM MgCl2, 0.05 mM Na3VO4, 0.004% TritonX-100, 2 mM DTT and 0.05% IgG was added followed by incubation at room temperature for 30 mm. The unbound reagents were removed by one time washing with water, and the TAG label was detected in presence of 150 μl IPR assay buffer (0.4 mM Gly-Gly buffer, pH 7.8, 1 mM EDTA, 0.1 M TPA). The ECL signals were measured using an imaging plate reader.
(§2) Proteins were produced using 100 ng of plasmid DNA Mock (Luciferase, Promega) or tyrosine kinases (Fert2 IMAGE ID # 4485050, FGFR1 IMAGE ID # 4037899, Fgfr2 IMAGE ID # 2654352, Src IMAGE ID # 3156400, BMX IMAGE ID # 3919253, LCK IMAGE ID # 4191610, Epha7 IMAGE ID # 3991628, Ephb4 IMAGE ID # 4013934, Tek IMAGE ID # 3482498, HCK IMAGE ID # 4778819, BTK IMAGE ID # 4478463, CSK IMAGE ID # 4398416, SYK IMAGE ID # 3870426, FGR IMAGE ID # 4419973, PTK2B IMAGE ID # 4339456, FRK(IMAGE ID # 4515877, Kit IMAGE ID # 2644960, Fgfr-4 IMAGE ID # 4239139, NTRK3 IMAGE ID # 4181574, Kdr IMAGE ID # 4238984, Incyte Genomics, CA) and immobilized on SA or avidin coated NPT-IPR plates as described in previous examples. The unbound components of the translation reaction (including any endogenous kinases) were removed by 3 washes with TT-buffer (25 mM Tris-HCl buffer pH 7.4 and 0.004% Triton), two five minutes washes with high-salt wash buffer (25 mM Tris-HCl buffer pH 7.4, 0.004% Triton, 1M NaCl and 5 mM DTT) and 3 washes with TT-buffer. […] The mixture was incubated at room temperature for 10 mm before starting the kinase reaction by adding 25 μl of 200 μM ATP in buffer A. This mixture was incubated with intermittent shaking at room temperature for 2 hours to overnight to allow (a) phosphorylation of the pEY substrate and (b) autophosphorylation of the immobilized kinases. Autophosphorylation and phosphorylation of the pEY was measured as described in Examples 7 and 8.
(§3) The ECL signal in control wells produced by tyrosine kinases was compared to the wells containing inhibitor compounds. The signal produced from Mock was negligible.

[3] = tested on: FRK; assay: Kinase inhibitor profiling, autophosphorylation; type: biochemical
Method: (§4) Proteins were produced from DNA plasmids of Mock Luciferase, Promega, tyrosine kinase clone Spleen Tyrosine kinase (SYK, IMAGE ID# 3870426) and Eph receptor-A7 (EphA7, IMAGE ID# 3991628) (Incyte Genomics, CA) and immobilized on streptavidin or avidin coated NPT-IPR plates as described in the Example 7. To promote autophosphorylation in these immobilized and purified proteins, Mn++ ions were added in a 50 μl reaction containing 5 mM MgCl2, 5 mM MnCl2, 100 μM ATP, 25 mM Tris-HCl buffer pH 7.4, 0.05 mM Na3VO4, 0.004% TritonX-100, 2 mM DTT and EDTA-free protease inhibitor (Roche Molecular Biochemicals). This mixture was incubated with shaking at room temperature overnight to allow autophosphorylation. Following this incubation, wells were washed 2 times with TT-buffer and 2 times with water. Following this step, 50 ng Sulfo-TAG labeled anti-phosphotyrosine in buffer containing 25 mM Tris-HCl buffer pH 7.4, 5 mM MgCl2, 0.05 mM Na3VO4, 0.004% TritonX-100, 2 mM DTT and 0.05% IgG in a final volume of 50 μl was added followed by incubation at room temperature for 45 min. The unbound reagents were removed by one time washing with water, and the TAG label was detected in presence of 150 μl IPR assay buffer (0.4 mM Gly—Gly buffer, pH 7.8, 1 mM EDTA, 0.1 M TPA). The ECL signals were measured using an imaging plate reader.
as §2, §3

[4] = tested on: tyrosine kinases reported to be the target of each inhibitor; conditions: read-out: reported IC50 concentration (1× concentration); for the kinase reported to be the target of the inhibitor; cited from earlier work
[5] = tested on: autophosphorylation (phosphotyrosine); assay: Autophosphorylation activity assay of immobilized in vitro translated protein; type: biochemical; conditions: 0.5 μl of TnT reaction
Method: as §4

[6] = tested on: pEY; assay: In vitro kinase library screen: activity towards pEY; type: biochemical; conditions: 5 ul of expressed protein
Method: as §1
(§5) Proteins were produced in an in vitro transcription and translation reaction as described in the Materials and Methods. […] The reaction was stopped by mixing with BB2 buffer. Biotinylated proteins from 50 μl of the mixture (representing 0.5 μl to 5 μl of TnT reaction) were immobilized onto streptavidin or avidin coated NPT-IPR plates by shaking at room temperature for 45 min. The activity of the immobilized protein towards pEY or autophosphorylation was further assayed by the methods described in examples 7 and 8.

[7] = tested on: autophosphorylation (phosphotyrosine); assay: In vitro kinase library screen: autophosphorylation; type: biochemical
Method: as §4, §5

[8] = biological target: T3, CSK (Homo sapiens, UniProt P41240); assay: Kinase inhibitor profiling, pEY phosphorylation; type: biochemical
T3 construct: specificity data for proteins generated from a library of eighteen full-length clones; host or cells: rabbit reticulocyte lysate, TnT coupled in vitro transcription/translation (cell-free)
Method: as §1, §2, §3

[9] = biological target: T4, Fgfr4 (Mus musculus, UniProt Q03142); assay: Kinase inhibitor profiling, pEY phosphorylation; type: biochemical
T4 construct: specificity data for proteins generated from a library of eighteen full-length clones; biotin on random lysines (biotin-Lys-tRNA); host or cells: rabbit reticulocyte lysate, coupled transcription/translation (TnT, Promega)
Method: as §1, §2, §3

[10] = biological target: T5, HCK (Homo sapiens, UniProt P08631); assay: Kinase inhibitor profiling, pEY phosphorylation; type: biochemical
T5 construct: specificity data for proteins generated from a library of eighteen full-length clones; host or cells: rabbit reticulocyte lysate, TnT coupled in vitro transcription/translation (cell-free)
Method: as §1, §2, §3

[11] = biological target: T6, PTK2B (Homo sapiens, UniProt Q14289); assay: Kinase inhibitor profiling, pEY phosphorylation; type: biochemical
T6 construct: specificity data for proteins generated from a library of eighteen full-length clones; host or cells: rabbit reticulocyte lysate, TnT coupled in vitro transcription/translation (cell-free)
Method: as §1, §2, §3

[12] = biological target: T7, SYK (Homo sapiens, UniProt P43405); assay: Kinase inhibitor profiling, pEY phosphorylation; type: biochemical
T7 construct: autophosphorylation activity from full-length clones Spleen Tyrosine Kinase (SYK) and Eph receptor-A7 (EphA7); host or cells: rabbit reticulocyte lysate, TnT coupled in vitro transcription/translation (cell-free)
Method: as §1, §2, §3

[13] = biological target: T4, Fgfr4; assay: Kinase inhibitor profiling, autophosphorylation; type: biochemical
Method: as §4, §2, §3

[14] = biological target: T2, Kit; assay: Kinase inhibitor profiling, autophosphorylation; type: biochemical
Method: as §4, §2, §3

[15] = biological target: T6, PTK2B; assay: Kinase inhibitor profiling, autophosphorylation; type: biochemical
Method: as §4, §2, §3

[16] = biological target: T7, SYK; assay: Kinase inhibitor profiling, autophosphorylation; type: biochemical
Method: as §4, §2, §3

T2 sequence (P05532 25-979): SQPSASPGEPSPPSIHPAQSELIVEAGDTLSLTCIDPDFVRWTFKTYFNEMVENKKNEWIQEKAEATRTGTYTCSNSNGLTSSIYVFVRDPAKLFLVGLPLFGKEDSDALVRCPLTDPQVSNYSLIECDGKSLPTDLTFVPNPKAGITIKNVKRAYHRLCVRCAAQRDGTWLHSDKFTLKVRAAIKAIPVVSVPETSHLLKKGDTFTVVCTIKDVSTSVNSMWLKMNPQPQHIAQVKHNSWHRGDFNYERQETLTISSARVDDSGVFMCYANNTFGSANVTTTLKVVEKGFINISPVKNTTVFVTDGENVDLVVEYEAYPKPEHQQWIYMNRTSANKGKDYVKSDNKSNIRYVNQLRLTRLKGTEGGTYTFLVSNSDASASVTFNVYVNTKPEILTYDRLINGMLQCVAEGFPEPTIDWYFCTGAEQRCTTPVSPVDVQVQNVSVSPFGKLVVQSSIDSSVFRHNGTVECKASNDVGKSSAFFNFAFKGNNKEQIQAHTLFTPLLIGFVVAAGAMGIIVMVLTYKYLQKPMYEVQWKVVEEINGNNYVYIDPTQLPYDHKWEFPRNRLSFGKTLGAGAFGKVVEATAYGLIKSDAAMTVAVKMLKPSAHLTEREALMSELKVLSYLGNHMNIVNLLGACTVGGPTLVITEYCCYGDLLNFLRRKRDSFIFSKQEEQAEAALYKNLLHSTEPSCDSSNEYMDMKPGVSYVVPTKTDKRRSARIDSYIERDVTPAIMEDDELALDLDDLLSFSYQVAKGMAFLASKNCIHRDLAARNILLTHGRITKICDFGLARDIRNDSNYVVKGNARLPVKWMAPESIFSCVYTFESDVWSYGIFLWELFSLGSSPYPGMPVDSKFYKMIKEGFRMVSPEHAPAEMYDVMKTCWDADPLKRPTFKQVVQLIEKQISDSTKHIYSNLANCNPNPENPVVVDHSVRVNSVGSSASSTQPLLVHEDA
T6 sequence (Q14289 whole entry): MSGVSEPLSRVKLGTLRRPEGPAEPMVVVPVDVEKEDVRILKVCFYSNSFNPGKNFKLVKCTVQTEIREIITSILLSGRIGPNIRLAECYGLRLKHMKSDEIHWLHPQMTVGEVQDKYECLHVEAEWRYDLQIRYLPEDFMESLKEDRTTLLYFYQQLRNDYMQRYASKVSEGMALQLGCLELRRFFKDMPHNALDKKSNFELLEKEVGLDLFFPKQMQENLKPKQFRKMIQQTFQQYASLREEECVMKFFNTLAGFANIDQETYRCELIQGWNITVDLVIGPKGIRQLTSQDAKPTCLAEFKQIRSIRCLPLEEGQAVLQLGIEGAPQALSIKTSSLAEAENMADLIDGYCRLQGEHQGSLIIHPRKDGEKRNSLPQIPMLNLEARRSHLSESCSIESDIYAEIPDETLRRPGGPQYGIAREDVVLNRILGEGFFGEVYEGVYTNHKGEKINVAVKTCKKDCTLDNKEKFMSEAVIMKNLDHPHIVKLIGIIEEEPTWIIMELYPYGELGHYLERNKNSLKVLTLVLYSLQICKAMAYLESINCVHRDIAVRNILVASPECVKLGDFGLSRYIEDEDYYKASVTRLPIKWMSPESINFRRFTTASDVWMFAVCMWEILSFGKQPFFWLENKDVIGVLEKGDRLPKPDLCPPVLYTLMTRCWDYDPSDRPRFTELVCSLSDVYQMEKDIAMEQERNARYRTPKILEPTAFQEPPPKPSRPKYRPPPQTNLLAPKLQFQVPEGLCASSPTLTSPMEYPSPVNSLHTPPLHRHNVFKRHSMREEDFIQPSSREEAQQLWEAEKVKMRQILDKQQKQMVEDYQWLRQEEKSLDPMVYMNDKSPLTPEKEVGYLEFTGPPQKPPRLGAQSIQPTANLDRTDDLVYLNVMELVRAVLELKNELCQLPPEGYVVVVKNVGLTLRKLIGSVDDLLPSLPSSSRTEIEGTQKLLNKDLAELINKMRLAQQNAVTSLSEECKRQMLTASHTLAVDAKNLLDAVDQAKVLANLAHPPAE
T4 sequence (Q03142 17-799): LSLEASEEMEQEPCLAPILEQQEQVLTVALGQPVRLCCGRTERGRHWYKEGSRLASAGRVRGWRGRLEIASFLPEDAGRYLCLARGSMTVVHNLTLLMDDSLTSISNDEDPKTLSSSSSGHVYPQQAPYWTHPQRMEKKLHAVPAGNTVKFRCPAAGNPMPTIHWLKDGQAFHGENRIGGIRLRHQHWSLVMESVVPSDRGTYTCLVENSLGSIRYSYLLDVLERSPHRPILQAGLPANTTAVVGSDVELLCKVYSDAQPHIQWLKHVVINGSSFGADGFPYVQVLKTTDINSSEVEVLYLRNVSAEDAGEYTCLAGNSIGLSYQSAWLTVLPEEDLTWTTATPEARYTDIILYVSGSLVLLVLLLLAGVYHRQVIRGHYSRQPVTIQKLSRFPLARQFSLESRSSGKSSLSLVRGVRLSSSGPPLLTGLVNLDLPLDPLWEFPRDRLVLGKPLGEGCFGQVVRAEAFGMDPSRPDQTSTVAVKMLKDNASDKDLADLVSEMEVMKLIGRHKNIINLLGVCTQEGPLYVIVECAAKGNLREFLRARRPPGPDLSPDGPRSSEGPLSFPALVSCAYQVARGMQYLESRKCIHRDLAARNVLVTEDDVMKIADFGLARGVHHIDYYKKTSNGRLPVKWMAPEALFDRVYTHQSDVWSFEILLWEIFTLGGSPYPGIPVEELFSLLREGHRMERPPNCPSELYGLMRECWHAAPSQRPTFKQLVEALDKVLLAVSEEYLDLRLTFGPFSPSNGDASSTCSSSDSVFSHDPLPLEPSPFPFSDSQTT
T5 sequence (P08631 whole entry): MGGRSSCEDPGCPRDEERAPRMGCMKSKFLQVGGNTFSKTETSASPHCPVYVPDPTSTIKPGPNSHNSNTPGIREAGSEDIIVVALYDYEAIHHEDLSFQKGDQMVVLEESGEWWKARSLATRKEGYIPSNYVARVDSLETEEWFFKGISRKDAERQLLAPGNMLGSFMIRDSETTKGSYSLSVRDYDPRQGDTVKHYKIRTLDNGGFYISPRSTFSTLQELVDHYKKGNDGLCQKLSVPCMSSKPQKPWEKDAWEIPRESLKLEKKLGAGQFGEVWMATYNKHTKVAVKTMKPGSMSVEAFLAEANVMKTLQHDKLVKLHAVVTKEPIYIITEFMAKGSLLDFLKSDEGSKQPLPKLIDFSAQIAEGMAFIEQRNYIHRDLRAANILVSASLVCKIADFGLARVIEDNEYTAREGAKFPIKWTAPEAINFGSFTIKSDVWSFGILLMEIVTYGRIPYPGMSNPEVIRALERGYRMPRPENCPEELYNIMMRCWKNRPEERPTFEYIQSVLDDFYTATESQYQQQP
T3 sequence (P41240 whole entry): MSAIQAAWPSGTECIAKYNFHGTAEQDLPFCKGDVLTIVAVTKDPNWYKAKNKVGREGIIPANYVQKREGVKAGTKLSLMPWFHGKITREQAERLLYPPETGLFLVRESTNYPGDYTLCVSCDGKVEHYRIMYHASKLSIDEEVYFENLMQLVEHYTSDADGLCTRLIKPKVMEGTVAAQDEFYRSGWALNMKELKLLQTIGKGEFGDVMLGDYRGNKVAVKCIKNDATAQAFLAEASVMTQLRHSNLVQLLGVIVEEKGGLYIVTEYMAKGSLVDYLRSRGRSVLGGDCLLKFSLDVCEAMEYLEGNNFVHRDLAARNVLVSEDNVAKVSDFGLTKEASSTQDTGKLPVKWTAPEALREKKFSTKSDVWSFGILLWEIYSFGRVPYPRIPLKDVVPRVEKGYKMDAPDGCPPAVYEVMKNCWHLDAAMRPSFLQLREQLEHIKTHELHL

With “LPVPE(p)YINQSVPKRPAGSVC (LPVPE[pY]INQSVPKRPAGSVC) [Phosphopeptide]” the ECL signal [1] was 7,348.

In the case of `CC(C)(C)n1nc(-c2ccc(Cl)cc2)c2c(N)ncnc21` [PP2], the “Inhibition specificity towards pEY phosphorylation at 10X IC50, Kit” value [2] is listed as “L (low inhibition (“L”=between 50–75% of the activity remaining))”, the “Inhibition specificity towards Autophosphorylation at 10X IC50, FRK” value [3] is listed as “L (low inhibition (“L”=between 50–75% of the activity remaining))” and the IC50 [4] is listed as 4 nM.

In the case of “Peptide: un-phosphorylated form of the EGFR 1063–1081 peptide (SEQ ID NO: 8) (LPVPEYINQSVPKRPAGSVC; Synthetic Fragment of EGFR-Y1068)”, the ECL signal [1] is reported as 34,055.

In the case of “3991628: IMAGE clone protein: EPHA7, Eph receptor A7 [compound 3991628]”, the ECL signal [5] is reported as 39,967, the “fold higher ECL signal than background produced by Mock (Luciferase)” value [5] is reported as ~47 fold and the HTS signal [6] is reported as 24,930. The ECL signal [7] was 115,662.

With `O=C1Nc2ccccc2/C1=C/c1ccc[nH]1` [Oxindole 1] the “Inhibition specificity towards pEY phosphorylation at 10X IC50, CSK” value [8] was “M (medium inhibition (“M”=between 25 to 50% of the activity remaining))”, the “Inhibition specificity towards pEY phosphorylation at 10X IC50, Fgfr4” value [9] was “M (medium inhibition (“M”=between 25 to 50% of the activity remaining))” and the “Inhibition specificity towards pEY phosphorylation at 10X IC50, HCK” value [10] was “L (low inhibition (“L”=between 50–75% of the activity remaining))”. For the same molecule, the “Inhibition specificity towards pEY phosphorylation at 10X IC50, Kit” value [2] was “H (high inhibition (“H”=less than 25% of the activity remaining))”, the “Inhibition specificity towards pEY phosphorylation at 10X IC50, PTK2B” value [11] was “M (medium inhibition (“M”=between 25 to 50% of the activity remaining))” and the “Inhibition specificity towards pEY phosphorylation at 10X IC50, SYK” value [12] was “L (low inhibition (“L”=between 50–75% of the activity remaining))”. The “Inhibition specificity towards Autophosphorylation at 10X IC50, Fgfr4” value [13] was “L (low inhibition (“L”=between 50–75% of the activity remaining))”, the “Inhibition specificity towards Autophosphorylation at 10X IC50, Kit” value [14] was “M (medium inhibition (“M”=between 25 to 50% of the activity remaining))” and the “Inhibition specificity towards Autophosphorylation at 10X IC50, PTK2B” value [15] was “L (low inhibition (“L”=between 50–75% of the activity remaining))”. For the same molecule, the “Inhibition specificity towards Autophosphorylation at 10X IC50, SYK” value [16] was “L (low inhibition (“L”=between 50–75% of the activity remaining))”.

From patent US7063946B2, “Methods, reagents, kits and apparatus for protein function analysis” (Meso Scale Technologies, LLC., priority 2001, dated 2006)
